Experimental data as given in patent US5674879A, “Compositions including and methods of using conformationally restricted angiotensin II antagonist” (G.D. Searle & Co., priority 1995, dated 1997).
Read-outs that look alike come from different tables or passages of the source.

Assays:
angiotensin II [1] = conditions: binding experiments, functional assays and in vivo tests; cited from earlier work
[2] = molecular target: smooth muscle angiotensin II receptor; test: Assay A: Angiotensin II Binding Activity (displacement of 125I-angiotensin II, rat uterine membrane preparation); conditions: 50% displacement of specifically bound 125I-AII, rat uterine membranes, 25° C., 60 min, pH 7.5
Experimental: Assay A: Angiotensin II Binding Activity
Compounds of the invention were tested for ability to bind to the smooth muscle angiotensin II receptor using a rat uterine membrane preparation. Angiotensin II (AII) was purchased from Peninsula Labs. ^125 I-angiotensin II (specific activity of 2200 Ci/mmol) was purchased from Du Pont-New England Nuclear. Other chemicals were obtained from Sigma Chemical Co. This assay was carried out according to the method of Douglas et al [Endocrinology, 106, 120-124 (1980)]. Rat uterine membranes were prepared from fresh tissue. All procedures were carried out at 4° C. Uteri were stripped of fat and homogenized in phosphate-buffered saline at pH 7.4 containing 5 mM EDTA. The homogenate was centrifuged at 1500×g for 20 min., and the supernatant was recentrifuged at 100,000×g for 60 min. The pellet was resuspended in buffer consisting of 2 mM EDTA and 50 mM Tris-HCl (pH 7.5) to a final protein concentration of 4 mg/ml. Assay tubes were charged with 0.25 ml of a solution containing 5 mM MgCl2, 2 mM EDTA, 0.5% bovine serum albumin, 50 mM Tris-HCl, pH 7.5 and ^125 I-AII (approximately 10^5 cpm) in the absence or in the presence of unlabelled ligand. The reaction was initiated by the addition of membrane protein and the mixture was incubated at 25° C. for 60 min. The incubation was terminated with ice-cold 50 mM Tris-HCl (pH 7.5) and the mixture was filtered to separate membrane-bound labeled peptide from the free ligand. The incubation tube and filter were washed with ice-cold buffer. Filters were assayed for radioactivity in a Micromedic gamma counter. Nonspecific binding was defined as binding in the presence of 10 μM of unlabelled AII. Specific binding was calculated as total binding minus nonspecific binding. The receptor binding affinity of an AII antagonist compound was indicated by the concentration (IC50) of the tested AII antagonist which gives 50% displacement of the total specifically bound ^125 I-AII from the high affinity AII receptor. Binding data were analyzed by a nonlinear least-squares curve fitting program.

[3] = molecular target: T1, rabbit aortic rings (angiotensin II contraction) (Oryctolagus cuniculus, UniProt P34976); test: Assay B: In Vitro Vascular Smooth Muscle Response for AII (rabbit aortic rings); format: cell-based, rabbit (male New Zealand white); conditions: rabbit aorta rings, antagonist 10^-5 M for 5 min, 37° C., read-out: Assay B pA2 (converted)
T1 construct: The thoracic aorta was removed, cleaned of adherent fat and connective tissue and then cut into 3-mm ring segments; from tissue; host or cells: rabbit thoracic aorta rings, endothelium removed
T1 sequence (P34976 1-359): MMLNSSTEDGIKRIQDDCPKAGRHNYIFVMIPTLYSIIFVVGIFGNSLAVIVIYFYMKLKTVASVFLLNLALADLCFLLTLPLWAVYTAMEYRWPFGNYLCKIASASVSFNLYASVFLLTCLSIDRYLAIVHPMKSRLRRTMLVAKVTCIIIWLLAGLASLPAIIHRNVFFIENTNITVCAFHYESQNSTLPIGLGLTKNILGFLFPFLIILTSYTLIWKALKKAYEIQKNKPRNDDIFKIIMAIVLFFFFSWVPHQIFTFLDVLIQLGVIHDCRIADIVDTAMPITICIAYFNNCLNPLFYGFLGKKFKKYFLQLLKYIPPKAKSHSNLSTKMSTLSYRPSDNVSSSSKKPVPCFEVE
Experimental: Assay B: In Vitro Vascular Smooth Muscle-Response for AII
The compounds of the invention were tested for antagonist activity in rabbit aortic rings. Male New Zealand white rabbits (2-2.5 kg) were sacrificed using an overdose of pentobarbital and exsanguinated via the carotid arteries. The thoracic aorta was removed, cleaned of adherent fat and connective tissue and then cut into 3-mm ring segments. The endothelium was removed from the rings by gently sliding a rolled-up piece of filter paper into the vessel lumen. The rings were then mounted in a water-jacketed tissue bath, maintained at 37° C., between moveable and fixed ends of a stainless steel wire with the moveable end attached to an FT03 Grass transducer coupled to a Model 7D Grass Polygraph for recording isometric force responses. The bath was filled with 20 ml of oxygenated (95% oxygen/5% carbon dioxide) Krebs solution of the following composition (mM): 130 NaCl, 15 NaHCO3, […], 1.2 NaH2 PO4, 1.2 MgSO4, 2.5 CaCl2, and 11.4 glucose. The preparations were equilibrated for one hour before approximately one gram of passive tension was placed on the rings. Angiotensin II concentration-response curves were then recorded (3×10^-10 to 1×10^-5 M). Each concentration of AII was allowed to elicit its maximal contraction, and then AII was washed out repeatedly for 30 minutes before rechallenging with a higher concentration of AII. Aorta rings were exposed to the test antagonist at 10^-5 M for 5 minutes before challenging with AII. Adjacent segments of the same aorta ring were used for all concentration-response curves in the presence or absence of the test antagonist. The effectiveness of the test compound was expressed in terms of pA2 values and were calculated according to H. O. Schild [Br. J. Pharmacol. Chemother., 2, 189-206 (1947)]. The pA2 value is the concentration of the antagonist which increases the IC50 value for AII by a factor of two. Each test antagonist was evaluated in aorta rings from two rabbits.

angiotensin II [4] = conditions: cited from earlier work
[5] = first of two values in the cell (rings from two rabbits)
[6] = second of two values in the cell (rings from two rabbits)

IC50 [2] | Kb [3, 5] | Kb [3, 6] | Compound | specific competitive angiotensin II antagonist activity (angiotensin II [1]) | residual agonist activity (angiotensin II [4])
– | – | – | CCCCc1nc(Cl)c(CC(=O)O)n1Cc1ccccc1[N+](=O)[O-] [2-butyl-4-chloro-1-(2-nitrobenzyl)imidazole-5-acetic acid] | specific competitive angiotensin II antagonist activity | –
– | – | – | CCCCc1nc(Cl)c(CC(=O)O)n1Cc1ccccc1Cl [2-n-butyl-4-chloro-1-(2-chlorobenzyl)imidazole-5-acetic acid] | specific competitive angiotensin II antagonist activity | –
41 nM | 16.2 nM | 53.7 nM | CCCCc1ncc2n1C(c1ccc(-c3ccccc3-c3nnn[nH]3)cc1)CC=C2CC(=O)OC(C)(C)C (stereo not drawn) [Example 17, 1,1-Dimethylethyl 3-butyl-5,6-dihydro-5-[2'-(1H-tetrazol-5-yl)[1,1'-biphenyl]-4-yl]imidazo[1,5-a]pyridin-8-acetate] | – | –
66 nM | 105 nM | 741 nM | CCCCc1nc(CCCC)n2c1C(=NO)CCC2c1ccc(-c2ccccc2-c2nn[nH]n2)cc1 (stereo not drawn) [Example 21, 1,3-Dibutyl-5,6-dihydro-N-hydroxy-5-[2'-(1H-tetrazol-5-yl)[1.1'-biphenyl]-4-yl]imidazol[1,5-a]pyridin-8(7H)-imine] | – | –
– | – | – | CNCC(=O)N[C@@H](CCCN=C(N)N)C(=O)N[C@H](C(=O)N[C@@H](Cc1ccc(O)cc1)C(=O)N[C@H](C(=O)N[C@@H](Cc1cnc[nH]1)C(=O)N1CCC[C@H]1C(=O)N[C@@H](C)C(=O)O)C(C)C)C(C)C [Saralasin] | – | significant residual agonist activity
